Compound `*C(=O)NCCN(CCNC(=O)c1ccc2c(c1)C(=O)N(c1ccc(Oc3ccc(N4C(=O)c5ccc(*)cc5C4=O)cc3)cc1)C2=O)c1ccc(/C=C/c2ccc([N+](=O)[O-])cc2)cc1` (repeat unit) displayed a glass transition temperature of 224.00 °C.
In the case of `*C(=O)NNC(=O)c1ccc([Si](c2ccccc2)(c2ccccc2)c2ccc(C(=O)NNC(=O)c3ccc(*)nc3)cc2)cc1` (repeat unit) it was 240.00 °C; in that of `*C(=O)NNC(=O)c1ccc([Si](c2ccccc2)(c2ccccc2)c2ccc(C(=O)NNC(=O)c3cncc(*)c3)cc2)cc1` (repeat unit), 234.00 °C; in that of `*C(=O)Nc1cc(C(F)(F)F)ccc1Oc1cccc2c(Oc3ccc(C(F)(F)F)cc3NC(=O)c3ccc4c(c3)C(=O)N(c3ccc(Oc5ccc(N6C(=O)c7ccc(*)cc7C6=O)cc5-c5ccccc5)c(-c5ccccc5)c3)C4=O)cccc12` (repeat unit), 376.00 °C.
Turning to `*C(=O)Nc1cc(NC(=O)c2ccc3c(c2)C(=O)N(c2cc(-c4nc5ccccc5o4)cc(N4C(=O)c5ccc(*)cc5C4=O)c2)C3=O)cc(-c2nc3ccccc3[nH]2)c1` (repeat unit), the glass transition temperature was found to be 371.00 °C.
For `*C(=O)Nc1cc(NC(=O)c2ccc3c(c2)C(=O)N(c2cccc(N4C(=O)c5ccc(*)cc5C4=O)c2)C3=O)cc(-c2nc3ccccc3[nH]2)c1` (repeat unit), the glass transition temperature was determined as 361.00 °C.
In the case of `*C(=O)Nc1cc(NC(=O)c2cccc(*)n2)cc(-c2nnc(-c3ccccn3)o2)c1` (repeat unit) it was 255.00 °C; in that of `*C(=O)c1cc(C(=O)c2ccc3c(c2)C(=O)N(c2ccc(Oc4ccc(N5C(=O)c6ccc(*)cc6C5=O)cc4)cc2)C3=O)cc(-c2ccccc2)c1` (repeat unit), 258.50 °C; in that of `*C(=O)c1cc(C(=O)c2ccc3c(c2)C(=O)N(c2ccc(Oc4ccc(S(=O)(=O)c5ccc(Oc6ccc(N7C(=O)c8ccc(*)cc8C7=O)cc6)cc5)cc4)cc2)C3=O)cc(-c2ccccc2)c1` (repeat unit), 256.50 °C.
To `*C(F)(F)C(=O)NCCCCCCNS(*)(=O)=O` (repeat unit) belongs 52.00 °C; to `*CC#CCOC(=O)NCCCCCCNC(=O)O*` (repeat unit), -45.00 °C.
As for `*CC(F)(F)C(F)(F)C(F)(F)C(F)(F)COC(=O)NCCCCCCNC(=O)O*` (repeat unit), the glass transition temperature is -2.00 °C.
In the case of `*CCCCCCCCCCCCCCCCOC(=O)NCCCCCCCCCCNC(=O)O*` (repeat unit) it was 34.00 °C; in that of `*CCCCCCCCCCCCCCNC(=O)NCCCCCCNC(=O)N*` (repeat unit), 47.00 °C.
In the case of `*CCCCCCCCCCCCNC(=O)c1ccc(C(=O)N*)c(Oc2ccccc2)c1` (repeat unit) it was 75.00 °C; in that of `*CCCCCCCCCCCCOC(=O)NCCCCCCNC(=O)O*` (repeat unit), 36.00 °C.
In the case of `*CCCCCCCCCCCCOC(=O)NCc1ccc(CNC(=O)O*)cc1` (repeat unit) it was 45.00 °C.
`*CCCCCCCCCCNC(=O)c1ccc(C(=O)N*)c(Oc2ccccc2)c1` (repeat unit) gave a glass transition temperature of 94.00 °C.
In the case of `*CCCCCCCCCCNC(=O)c1ccc(Cc2ccc(C(=O)N*)cc2)cc1` (repeat unit) it was 140.00 °C; in that of `*CCCCCCCCCCOC(=O)NCc1ccc(CNC(=O)O*)cc1` (repeat unit), 49.00 °C; in that of `*CCCCCCCCCNC(=O)N*` (repeat unit), 130.00 °C.
In the case of `*CCCCCCCCCNC(=O)c1ccc(C(=O)N*)cc1` (repeat unit) it was 115.00 °C; in that of `*CCCCCCCNC(=O)c1ccc(C(=O)N*)cc1` (repeat unit), 160.00 °C.
For `*CCCCCCCNC(=S)N*` (repeat unit), the glass transition temperature stood at 52.00 °C.
In the case of `*CCCCCCCOC(=O)NCCCCCCNC(=O)O*` (repeat unit) it was 55.00 °C; in that of `*CCCCCCNC(=O)C(=O)N*` (repeat unit), 250.00 °C; in that of `*CCCCCCNC(=O)c1c(Cl)c(Cl)c(C(=O)N*)c(Cl)c1Cl` (repeat unit), 282.00 °C.
In the case of `*CCCCCCNC(=O)c1ccc(C(=O)N*)c(Oc2ccc(-c3ccccc3)cc2)c1` (repeat unit), the glass transition temperature is 112.00 °C.
In the case of `*CCCCCCNC(=O)c1ccc(C(=O)N*)c(Oc2ccc(Cl)cc2)c1` (repeat unit) it was 112.00 °C.
In the case of `*CCCCCCNC(=O)c1ccc(C(=O)N*)cc1` (repeat unit) it was 132.50 °C; in that of `*CCCCCCOC(=O)NCc1ccc(CNC(=O)O*)cc1` (repeat unit), 56.00 °C; in that of `*CCCCCNC(=S)N*` (repeat unit), 55.00 °C.
To `*CCCCNC(=O)c1ccc(C(=O)N*)c(Oc2ccccc2)c1` (repeat unit) belongs 125.00 °C; to `*CCCCNC(=O)c1cccc(C(=O)N*)c1` (repeat unit), 141.00 °C; to `*CCCNC(=O)c1ccc(C(=O)NCCCO*)cc1` (repeat unit), 72.00 °C.
Regarding `*CCN(CCNC(=O)c1ccc2c(c1)C(=O)N(*)C2=O)c1ccc(/C=C/c2ccc([N+](=O)[O-])cc2)cc1` (repeat unit), the glass transition temperature is 142.00 °C.
To `*CCNC(=O)c1ccc(C(=O)N*)c(Oc2ccccc2)c1` (repeat unit) belongs 164.00 °C; to `*CCNC(=O)c1ccc(O*)cc1` (repeat unit), 150.00 °C; to `*CCNC(=O)c1ccc([Si](c2ccccc2)(c2ccccc2)c2ccc(C(=O)NCCN(*)c3ccc(/C=C/c4ccc([N+](=O)[O-])cc4)cc3)cc2)cc1` (repeat unit), 165.00 °C.
Compound `*CCNC(=O)c1cccc(O*)c1` (repeat unit) came in with a glass transition temperature of 106.00 °C.
In the case of `*CCOC(=O)NCCCCCCCCCCNC(=O)O*` (repeat unit) it was 60.80 °C.
In the case of `*CCOC(=O)NCCCCCCNC(=O)O*` (repeat unit) it was 56.00 °C; in that of `*CCOC(=O)NCCCCCCNC(=O)OCCOc1ccc(C2(c3ccc(O*)cc3)c3ccccc3-c3ccccc32)cc1` (repeat unit), 61.00 °C.
To `*CCOCCOCCOCCOC(=O)NCCCCCCNC(=O)O*` (repeat unit) belongs -17.00 °C.
For the compound `*Cc1cccc(CNC(=O)C2=C(C(=O)N*)C3C=CC2C3)c1` (repeat unit), the glass transition temperature came out at 291.00 °C.
In the case of `*Cc1cccc(CNC(=O)c2cccc(C(=O)N*)c2)c1` (repeat unit) it was 172.00 °C; in that of `*Cc1cccc(CNC(=O)c2ccccc2-c2ccccc2C(=O)N*)c1` (repeat unit), 159.00 °C; in that of `*NNC(=O)c1ccccc1C(=O)Nc1cccc(/C=C2\CC/C(=C\c3cccc(NC(=O)c4ccccc4C(*)=O)c3)C2=O)c1` (repeat unit), 202.10 °C.
To `*NNC(=O)c1ccccc1C(=O)Nc1cccc(/C=C2\CCC/C(=C\c3cccc(NC(=O)c4ccccc4C(*)=O)c3)C2=O)c1` (repeat unit) belongs 195.00 °C.
To `*Nc1c(-c2ccccc2)cc(-c2ccc(-c3cc(-c4ccccc4)c(NC(=O)c4ccc(C(*)=O)cc4)c(-c4ccccc4)c3)cc2)cc1-c1ccccc1` (repeat unit) belongs 135.00 °C.
In the case of `*Nc1cc(NC(=O)NC2CCC(CC3CCC(NC(*)=O)CC3)CC2)cc(C(=O)Nc2ccc3c(c2)C(=O)c2ccccc2C3=O)c1` (repeat unit), the glass transition temperature came to 148.00 °C.
In the case of `*Nc1cc(NC(=O)c2ccc(C(*)=O)cc2)cc(C(=O)OC(c2ccccc2)c2ccccc2)c1` (repeat unit) it was 217.00 °C; in that of `*Nc1cc(NC(=O)c2cccc(C(*)=O)c2)cc(-c2nnc(-c3ccccn3)o2)c1` (repeat unit), 155.00 °C; in that of `*Nc1ccc(Cc2ccc(NC(=O)NCCCCCCCCCNC(*)=O)cc2)cc1` (repeat unit), -50.00 °C.
In the case of `*Nc1cccc2c1C(=O)c1cccc(N[Se]*)c1C2=O` (repeat unit) it was 52.00 °C.
To `*Oc1ccc(/N=C/CCC/C=N/c2ccc(OC(=O)NCCCCCCNC(*)=O)cc2)cc1` (repeat unit) belongs 72.00 °C; to `*Oc1ccc(C(=O)NNC(=O)c2ccc(*)cc2)cc1` (repeat unit), 263.00 °C.
As to `*Oc1ccc(C(=O)NNC(=O)c2ccc(C(=O)NNC(=O)c3ccc(OC(=O)c4cccc(C(*)=O)c4)cc3)cc2Oc2ccccc2)cc1` (repeat unit), the glass transition temperature was found to be 160.00 °C.
In the case of `*Oc1ccc(C(c2ccc(Oc3c(F)c(F)c(C(=O)c4c(F)c(F)c(*)c(F)c4F)c(F)c3F)cc2)(C(F)(F)F)C(F)(F)F)cc1` (repeat unit) it was 149.00 °C.
In turn, `*Oc1ccc(C(c2ccc(Oc3ccc(C(=O)c4c(C(=O)c5ccc(*)cc5)c(-c5ccc(F)cc5)c(-c5ccc(F)cc5)c(-c5ccc(F)cc5)c4-c4ccc(F)cc4)cc3)cc2)(C(F)(F)F)C(F)(F)F)cc1` (repeat unit) displayed a glass transition temperature of 253.00 °C.
To `*Oc1ccc(C2(c3ccc(Oc4ccc(C(=O)c5c(C(=O)c6ccc(*)cc6)c(-c6ccccc6)c(-c6ccc7ccccc7c6)c(-c6ccc7ccccc7c6)c5-c5ccccc5)cc4)cc3)c3ccccc3-c3ccccc32)cc1` (repeat unit) belongs 310.00 °C; to `*Oc1ccc(CNC(=O)c2ccc(C(=O)NCc3ccc(OC4COC5C(*)COC45)cc3)cc2)cc1` (repeat unit), 122.00 °C; to `*c1ccc(C(=O)NCCCCCCCCCCCCNC(=O)c2ccc(-c3nc4ccccc4nc3*)cc2)cc1` (repeat unit), 154.00 °C.
In the case of `*c1cccc(S(=O)(=O)NCCCCCCNS(*)(=O)=O)c1` (repeat unit) it was 67.00 °C.

The values above are taken from the PolyMetriX glass transition set.
